Assay results: ChEMBL document CHEMBL1949534, “Two-step bioorthogonal activity-based proteasome profiling using copper-free click reagents: a comparative study” (Bioorg Med Chem, 2012)
Active and inactive are the calls of the source. The calls are words filed in the database; no cut-off is given here.

How the values were obtained:
HeLa [1] = assay: Binding affinity to proteasome in human HeLa cells assessed as fluorescence at 5 uM pretreated with azido-BODIPY-epoxomicin for 2 hrs followed by 4 hrs of incubation with compound measured post washing by SDS-PAGE-based Western blot analysis
Proteasome [2] = assay: Binding affinity to proteasome in azido-BODIPY-epoxomicin treated HEK293T cell lysates at 1 to 100 uM after 1 hr by Western blot analysis with streptavidin-HRP; assay type: subcellular; details: Homo sapiens, HEK-293T
Proteasome [3] = assay: Binding affinity to proteasome in azido-BODIPY-epoxomicin treated HEK293T cell lysates at 5 uM at 0 degC by SDS-PAGE-based fluorescence analysis; assay type: subcellular; details: Homo sapiens, HEK-293T
Proteasome [4] = assay: Binding affinity to proteasome in azido-BODIPY-epoxomicin treated HEK293T cell lysates at 5 uM at 37 degC after 2 hrs by SDS-PAGE-based fluorescence analysis; assay type: subcellular; details: Homo sapiens, HEK-293T
Proteasome [5] = assay: Binding affinity to proteasome in azido-BODIPY-epoxomicin treated HEK293T cell lysates at 50 to 100 uM after 1 hr by SDS-PAGE-based fluorescence analysis; assay type: subcellular; details: Homo sapiens, HEK-293T
Proteasome [6] = assay: Binding affinity to proteasome in azido-BODIPY-epoxomicin treated HEK293T cell lysates at 5 uM at 37 degC up to 4 hrs by SDS-PAGE-based fluorescence analysis; assay type: subcellular; details: Homo sapiens, HEK-293T
Proteasome [7] = assay: Binding affinity to proteasome in azido-BODIPY-epoxomicin treated HEK293T cell lysates at 0.5 uM at 37 degC after 30 mins by SDS-PAGE-based fluorescence analysis; assay type: subcellular; details: Homo sapiens, HEK-293T
Proteasome [8] = assay: Binding affinity to proteasome in azido-BODIPY-epoxomicin treated HEK293T cell lysates at 0.5 uM at 0 degC by SDS-PAGE-based fluorescence analysis; assay type: subcellular; details: Homo sapiens, HEK-293T
Proteasome [9] = assay: Binding affinity to proteasome in azido-BODIPY-epoxomicin treated HEK293T cell lysates at 5 uM after 1 hr by SDS-PAGE-based fluorescence analysis; assay type: subcellular; details: Homo sapiens, HEK-293T
HeLa [10] = assay: Binding affinity to proteasome in human HeLa cells assessed as fluorescence at 0.5 uM pretreated with azido-BODIPY-epoxomicin for 2 hrs followed by 4 hrs of incubation with compound measured post washing by SDS-PAGE-based Western blot analysis
Proteasome [11] = assay: Binding affinity to proteasome in azido-BODIPY-epoxomicin treated HEK293T cell lysates at 50 uM at 0 degC by SDS-PAGE-based fluorescence analysis; assay type: subcellular; details: Homo sapiens, HEK-293T
Proteasome [12] = assay: Binding affinity to proteasome in azido-BODIPY-epoxomicin treated HEK293T cell lysate at 50 uM at 37 degC up to 4 hrs by SDS-PAGE-based fluorescence analysis; assay type: subcellular; details: Homo sapiens, HEK-293T
HeLa [13] = assay: Binding affinity to proteasome in human HeLa cells assessed as fluorescence at 100 uM pretreated with azido-BODIPY-epoxomicin for 2 hrs followed by 4 hrs of incubation with compound measured post washing by SDS-PAGE-based Western blot analysis

Activity (HeLa [1]) | Activity (Proteasome [2]) | Activity (Proteasome [3]) | Activity (Proteasome [5]) | SMILES | other results
Active | Active | Active | Active | O=C(CCCC[C@@H]1SC[C@@H]2NC(=O)N[C@@H]21)NCCOCCOCCOCCNC(=O)OC[C@@H]1[C@@H]2CCC#CCC[C@@H]21 | Activity (Proteasome [4]): Active
Active | Active | Active | Active | O=C(CCCC[C@@H]1SC[C@@H]2NC(=O)N[C@@H]21)NCCOCCOCCNC(=O)C1(F)C#CCCCCC1 (stereo partly drawn) | Activity (Proteasome [6]): Active
– | Active | – | – | O=C(CCCC[C@@H]1SC[C@@H]2NC(=O)N[C@@H]21)NCCOCCOCCOCCNC(=O)OC1Cc2ccccc2C#Cc2ccccc21 (stereo partly drawn) | Activity (Proteasome [7]): Active; Activity (Proteasome [8]): Active; Activity (Proteasome [9]): Active; Activity (HeLa [10]): Active
– | – | – | – | COC(=O)c1ccc(C(=O)NCCOCCOCCNC(=O)CCCC[C@@H]2SC[C@@H]3NC(=O)N[C@@H]32)cc1P(c1ccccc1)c1ccccc1 | Activity (Proteasome [11]): Active; Activity (Proteasome [12]): Active; Activity (HeLa [13]): Active
